Like-named read-outs stand apart in the source and are kept apart here.
Legend:
HK2 cells = assay: Cell Titer-Glo anti-proliferation, normal cells HK2; assay type: cell-based
Protocol: (§1) Compound solutions of different concentration gradients were prepared. […] The cell growth group without compound was used as a positive control (maximum signal control) and the medium was used as a negative control (minimum signal control), while ensuring that the final level of DMSO in each reaction well was 0.2%. After removing the medium from the 384-well plate, 25 μl of the configured compound at different concentrations was transferred into the well plate and the compound and cells were incubated in the cell incubator at 37° C. with 5% CO2 for 3 days.
(§2) The 384-well plates were removed from the cell incubator and allowed to equilibrate for 1 h to room temperature. 25 μl of Cell Titer-Glo assay was added to each well, lysed on a shaker for 2 min and then read out (Luminescence) using a BMG PHERAStar after 10 min incubation. Calculate the inhibition rate from the luminescence signal.
(§3) to calculate the rate of inhibition of the cells by different concentrations of the compounds. The IC50 of the compound on cell activity inhibition was calculated by fitting a log(inhibitor) vs. response-Variable slope model to GraphPad Prism 6. The fitted equation was: Y=Bottom+(Top-Bottom)/(1+10^((Log IC50−X)*HillSlope)), where Y represents the rate of inhibition and X represents the concentration of the known compound after Log.
(§4) B. Evaluation of the Anti-Proliferative Effect of Compounds by the Cell Titer-Glo Method on Normal Cells HUVEC and HK2.
(§5) The test method is the same as the anti-proliferative activity evaluation of tumor cells.

[1] = Toxicity in rats after 14 consecutive days of administration, survival; settings: 75 mg/kg qd by gavage, 14 days
HUVEC cells = assay: Cell Titer-Glo anti-proliferation, normal cells HUVEC; assay type: cell-based
Protocol: as §1, §2, §3, §4, §5

[2] = Saturated solubility in buffer at different pH; assay type: physicochemical
Protocol: The compound was placed in a buffer solution and shaken at constant temperature for 24 h. […] Chromatographic conditions: C18 column, mobile phase A: 0.02 M potassium dihydrogen phosphate:acetonitrile=90:10, mobile phase B: acetonitrile; V: 1.0 ml/min, T: 35° C., λ: 210 nm.

BxPC3 cells = assay: Cell Titer-Glo anti-proliferation, BxPC3 cells; assay type: cell-based, human; settings: 3 days, read-out: Anti-proliferative activity BxPC3 (IC50 class)
Procedure, shortened: (§6)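 Each line was exposed to graded compound concentrations for 3 days at 37 °C, 5% CO2, with final DMSO at 0.2%. Viability was measured by Cell Titer-Glo luminescence, with untreated cells as the maximum and medium as the minimum signal. IC50 came from a variable-slope log(inhibitor)-response fit.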

hERG potassium channel = hERG potassium channel (Homo sapiens (Human), UniProt Q12809); assay: hERG potassium channel inhibition, patch clamp in CHO hERG cells
Sequence of hERG potassium channel (Q12809 whole entry): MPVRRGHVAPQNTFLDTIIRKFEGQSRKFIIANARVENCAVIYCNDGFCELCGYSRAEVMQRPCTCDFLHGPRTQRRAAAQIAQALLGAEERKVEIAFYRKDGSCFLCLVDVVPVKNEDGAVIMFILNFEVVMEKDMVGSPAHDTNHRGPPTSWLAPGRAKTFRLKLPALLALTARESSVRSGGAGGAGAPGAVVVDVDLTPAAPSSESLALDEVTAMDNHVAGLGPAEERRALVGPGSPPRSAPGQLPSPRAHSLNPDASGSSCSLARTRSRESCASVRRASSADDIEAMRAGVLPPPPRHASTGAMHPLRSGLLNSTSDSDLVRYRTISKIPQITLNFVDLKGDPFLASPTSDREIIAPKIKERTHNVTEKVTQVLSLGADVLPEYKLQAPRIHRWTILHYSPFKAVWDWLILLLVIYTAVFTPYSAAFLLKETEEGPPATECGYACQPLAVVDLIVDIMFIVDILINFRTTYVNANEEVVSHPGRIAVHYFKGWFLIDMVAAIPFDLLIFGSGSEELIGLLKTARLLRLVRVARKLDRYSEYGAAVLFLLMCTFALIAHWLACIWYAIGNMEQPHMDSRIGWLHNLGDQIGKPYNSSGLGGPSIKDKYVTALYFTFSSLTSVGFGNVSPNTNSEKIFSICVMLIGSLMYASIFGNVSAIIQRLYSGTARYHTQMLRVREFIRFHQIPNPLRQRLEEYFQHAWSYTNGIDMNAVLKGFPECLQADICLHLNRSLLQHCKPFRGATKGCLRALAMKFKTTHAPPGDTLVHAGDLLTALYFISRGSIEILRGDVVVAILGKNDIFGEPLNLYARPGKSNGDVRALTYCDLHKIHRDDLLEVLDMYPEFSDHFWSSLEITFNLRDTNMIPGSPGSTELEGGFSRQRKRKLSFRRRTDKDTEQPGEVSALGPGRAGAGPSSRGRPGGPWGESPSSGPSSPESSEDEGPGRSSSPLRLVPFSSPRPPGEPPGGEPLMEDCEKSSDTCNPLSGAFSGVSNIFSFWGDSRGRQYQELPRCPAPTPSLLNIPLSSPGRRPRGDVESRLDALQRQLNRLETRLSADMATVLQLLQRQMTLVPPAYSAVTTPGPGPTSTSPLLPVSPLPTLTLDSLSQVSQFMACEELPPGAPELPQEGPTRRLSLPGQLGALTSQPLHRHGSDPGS
Protocol: The cell line used for the patch clamp assay was a 10th generation CHO cell overexpressing hERG potassium channel cDNA. CHO hERG cells were cultured in Petri dishes or flasks at 37° C. in a 5% CO2 incubator. Cells were dropped onto circular slides 24-48 hours prior to electrophysiological experiments and cultured in cell culture medium and used for experiments after the cells had been adhered.
Cell culture medium (purchased from Invitrogen) Composition: • Ham's F12 medium • 10% (v/v) heat inactivated FBS • 100 μg/ml Hygromycin B (thaumatin) • 100 μg/ml Geneticin (Genomycin, G418)
Compound powders are dissolved in the extracellular solution and are subjected to a routine 5 to 10 minute sonication and shaking to ensure complete dissolution of the compound.
The final concentrations of compounds used for electrophysiological assays were 5, 20 μM and the final concentration of DMSO was 0.1%.
Cell membrane currents were recorded using a HEKA EPC-10 USB patch-clamp amplifier (HEKA Elektronik, Germany). • 1) A coverslip with a large number of uniformly growing individual CHO hERG cells on its surface was taken. Place in a continuous recording cell on an inverted microscope, perfused with extracellular fluid (approximately 1 ml per minute) and recorded continuously, waiting for the current to stabilize. • 2) Record HERG channel currents for individual cells using standard whole cell recording mode. The membrane voltage is first clamped at −80 mV and the cell is given a +20 mV stimulus for 5 s to activate the hERG potassium channel, then repolarized to −50 mV for 5 s to generate an outward tail current, which is continuously perfused until the current is stable, at which point the peak tail current is the control current value. • 3) The extracellular solution containing the drug to be tested was then perfused and recorded until the inhibitory effect of the drug on the hERG current reached a steady state, at which point the peak tail current was the post-drug current value. • 4) The cells are again perfused with the extracellular solution until the hERG current returns to or approaches the level prior to the addition of the drug, then the perfusion can be continued to test other concentrations or drugs. One or more compound or drug concentrations may be tested on each cell. • 5) Cisapride (C4740-10 mg, Sigma) is used as a positive control in the experiment to ensure that the cells used respond properly.

OVCAR-3 cells = assay: Cell Titer-Glo anti-proliferation, OVCAR-3 cells; assay type: cell-based; settings: 3 days, read-out: Anti-proliferative activity OVCAR-3 (IC50 class)
Procedure, shortened: as §6

HT-29 cells = assay: Cell Titer-Glo anti-proliferation, HT-29 cells; assay type: cell-based, human; settings: 3 days, read-out: Anti-proliferative activity HT-29 (IC50 class)
Procedure, shortened: as §6

Wee1 protein = Wee1 protein (Homo sapiens (Human), UniProt P30291); assay: TR-FRET binding of compound to Wee1 protein and Tracer 178; settings: Tracer 178, read-out: IC50, inhibitory activity against Wee1 kinase
Sequence of Wee1 protein (P30291 whole entry): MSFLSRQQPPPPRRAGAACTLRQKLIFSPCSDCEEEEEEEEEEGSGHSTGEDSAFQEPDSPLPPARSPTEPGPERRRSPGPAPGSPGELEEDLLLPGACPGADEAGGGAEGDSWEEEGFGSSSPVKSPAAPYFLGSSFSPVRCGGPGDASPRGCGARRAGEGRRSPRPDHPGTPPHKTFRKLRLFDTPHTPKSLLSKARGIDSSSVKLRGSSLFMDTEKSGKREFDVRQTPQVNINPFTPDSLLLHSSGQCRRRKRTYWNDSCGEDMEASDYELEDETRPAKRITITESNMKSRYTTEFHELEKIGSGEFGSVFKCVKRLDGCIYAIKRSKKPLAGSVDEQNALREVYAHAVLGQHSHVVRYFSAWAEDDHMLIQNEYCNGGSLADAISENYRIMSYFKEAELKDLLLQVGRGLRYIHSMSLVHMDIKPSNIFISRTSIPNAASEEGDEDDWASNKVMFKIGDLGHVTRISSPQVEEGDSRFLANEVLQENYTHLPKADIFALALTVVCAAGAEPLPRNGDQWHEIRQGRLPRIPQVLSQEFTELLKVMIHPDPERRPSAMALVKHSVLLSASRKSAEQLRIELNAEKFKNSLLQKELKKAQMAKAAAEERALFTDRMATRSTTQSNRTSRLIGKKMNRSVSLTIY

Caco-2 cells = assay: Membrane permeability in Caco-2 model; assay type: in vitro ADME
Protocol: Caco-2 cells were purchased from the American Model Tissue Cell Collection (Rockville, MD). The cell culture medium was modified Eagle's medium (MEM) containing 10% inactivated fetal bovine serum and 1% non-essential amino acids. […] The cells were incubated for 21-28 days after inoculation for transport experiments and the apparent permeability (Papp) of Lucifer Yellow was used to characterize and verify the compactness of the cell monolayer. […] After the incubation, dilute the samples on the apical side and basolateral side, and the concentrations of compounds on the apical and basolateral sides were detected by LC-MS/MS, and the concentrations of the compounds were quantified by standard curve.

[3] = Metabolic stability in liver microsomes, mouse; assay type: in vitro ADME
Protocol: (§7) Test Example 3: Evaluation of the Metabolic Stability of Liver Microsomes (Mouse and Human) In Vitro Microsomes were taken out from the −80° C. refrigerator, rapidly melted in a 37° C. water bath and placed on ice until ready to use. The test article was diluted with DMSO to prepare a 10 mM stock solution, and then diluted with acetonitrile to a 0.5 mM secondary stock solution. […] NADPH was diluted with Buffer C to a working solution of 6 mM for the starter solution. An acetonitrile solution containing an internal standard was prepared as the precipitant, and Verapamil-HCl was chosen as the internal standard at a concentration of 4 ng/ml. […] A separate plate with pointed bottom wells, noted as a precipitation plate, was added with 135 μL precipitant per well; 0 h samples were transferred to the plate after 10 min incubation and 15 μL of starter solution was added; the plate was placed on ice before centrifugation. The diluted starter solution was added in sufficient quantity to the dispensing plate to facilitate the multichannel pipette aspiration operation. The reaction was carried out on a warm incubation shaker and 15 μL of starter solution/sample is added to the plate using a multichannel pipette. The reaction was mixed with a slight shake to initiate the reaction, which was accurately timed and recorded using a timer; After the reaction time had elapsed, all the solution in the plate was aspirated using the multichannel pipette and added to the precipitation plate to terminate the reaction at that point in time. After all reactions had been terminated, the plates were shaken for ten minutes on a plate shaker at 600 rpm to precipitate the protein. The plate was centrifuged at 4° C. for 15 minutes at maximum rpm. 80 μL of supernatant was taken, 320 μL of pure water was added and mixed for LC-MS analysis.

[4] = Metabolic stability in liver microsomes, human; assay type: in vitro ADME
Protocol: as §7

CYP2C9 = CYP2C9 (Homo sapiens (Human), UniProt P11712); assay: Cytochrome P450 inhibition (fluorescence), CYP2C9; assay type: in vitro ADME
Sequence of CYP2C9 (P11712 whole entry, canonical isoform): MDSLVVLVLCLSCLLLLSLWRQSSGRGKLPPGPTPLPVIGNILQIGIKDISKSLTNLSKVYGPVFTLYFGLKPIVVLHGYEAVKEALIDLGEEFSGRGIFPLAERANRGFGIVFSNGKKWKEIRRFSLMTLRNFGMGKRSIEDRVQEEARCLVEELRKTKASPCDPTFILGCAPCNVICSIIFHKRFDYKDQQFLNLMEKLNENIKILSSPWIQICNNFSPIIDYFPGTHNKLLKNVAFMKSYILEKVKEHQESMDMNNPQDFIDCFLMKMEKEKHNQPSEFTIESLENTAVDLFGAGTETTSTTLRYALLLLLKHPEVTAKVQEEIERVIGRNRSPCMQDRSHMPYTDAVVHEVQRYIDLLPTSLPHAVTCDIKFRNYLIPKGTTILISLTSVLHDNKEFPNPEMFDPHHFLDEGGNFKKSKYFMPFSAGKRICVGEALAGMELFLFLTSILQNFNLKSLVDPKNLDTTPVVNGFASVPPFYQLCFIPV
Protocol: (§8) Enzymatic experiments were performed to quantify the inhibition of CYP450 enzyme activity of each isoform of CYP450 by small molecule inhibitors through fluorescence generated by the oxidation of the substrate by cytochrome P450. […] The Solution B composition used for the experiment was: 40 U/mL G6PDH (Sigma-aldrich, Cat #G6378). The substrate mix was 0.05× Solution A, 0.01× Solution B, 50 mM Potassium Phosphate, 0.01 mM BOMCC/0.01 mM EOMCC/0.001 mM DBOMF. […] The data were analyzed and processed using GraphPad Prism 6 software to obtain IC50 values.

CYP3A4 = CYP3A4 (Homo sapiens (Human), UniProt P08684); assay: Cytochrome P450 inhibition (fluorescence), CYP3A4; assay type: in vitro ADME
Sequence of CYP3A4 (P08684 whole entry): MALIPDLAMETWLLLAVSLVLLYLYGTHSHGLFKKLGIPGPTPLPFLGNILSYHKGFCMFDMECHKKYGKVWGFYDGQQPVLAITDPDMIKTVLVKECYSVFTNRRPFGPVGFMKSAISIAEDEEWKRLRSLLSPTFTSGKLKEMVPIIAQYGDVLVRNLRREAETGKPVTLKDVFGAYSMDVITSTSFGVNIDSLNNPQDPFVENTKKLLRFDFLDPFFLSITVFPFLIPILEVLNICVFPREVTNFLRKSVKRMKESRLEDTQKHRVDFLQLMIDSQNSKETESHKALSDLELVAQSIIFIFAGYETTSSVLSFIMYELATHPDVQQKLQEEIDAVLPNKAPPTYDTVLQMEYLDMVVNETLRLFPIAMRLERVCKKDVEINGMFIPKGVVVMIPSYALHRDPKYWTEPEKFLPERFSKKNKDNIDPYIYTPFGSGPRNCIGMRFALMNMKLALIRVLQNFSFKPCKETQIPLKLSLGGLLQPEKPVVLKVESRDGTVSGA
Protocol: as §8

[5] = Metabolic stability in liver microsomes, rat; assay type: in vitro ADME
Protocol: as §7, with “Microsomes” for “Test Example 3: Evaluation of the Metabolic Stability of Liver Microsomes (Mouse and Human) In Vitro Microsomes”

CYP1A2 = CYP1A2 (Homo sapiens (Human), UniProt P05177); assay: Cytochrome P450 inhibition (fluorescence), CYP1A2; assay type: in vitro ADME
Sequence of CYP1A2 (P05177 whole entry): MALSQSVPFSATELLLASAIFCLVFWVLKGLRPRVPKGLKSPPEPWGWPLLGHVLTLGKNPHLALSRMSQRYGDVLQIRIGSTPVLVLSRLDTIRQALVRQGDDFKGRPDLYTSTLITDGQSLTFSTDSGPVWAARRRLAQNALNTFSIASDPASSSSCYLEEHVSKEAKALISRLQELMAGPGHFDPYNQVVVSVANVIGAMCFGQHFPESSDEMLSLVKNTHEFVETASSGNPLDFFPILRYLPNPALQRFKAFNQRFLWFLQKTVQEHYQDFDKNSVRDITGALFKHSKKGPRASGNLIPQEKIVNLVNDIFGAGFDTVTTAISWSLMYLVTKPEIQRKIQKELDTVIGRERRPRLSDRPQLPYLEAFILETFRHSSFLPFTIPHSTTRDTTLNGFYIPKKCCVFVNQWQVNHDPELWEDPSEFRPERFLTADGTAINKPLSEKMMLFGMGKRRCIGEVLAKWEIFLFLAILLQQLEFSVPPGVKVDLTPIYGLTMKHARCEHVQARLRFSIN
Protocol: as §8

plasma protein [6] = assay: Plasma protein binding (equilibrium dialysis), mouse; settings: mouse plasma, 1 μM, 5 h dialysis
Protocol: Sample preparation: The compound was dissolved in DMSO to a stock solution of 10 mM, then the compound was diluted with PBS to a secondary stock solution of 0.02 mM, and then the above 0.02 mM was diluted to 1 μM using blank plasma, which was the sample to be incubated.
Dialysis set-up preparation: 400 μL of blank PBS was first added to the white wells of the equilibrated dialysis plate and 200 μL of the configured plasma sample was added to the red wells, and the dialysis plate was sealed with a sealing film.
Recovery plate preparation: Two 96-well deep-well plates, labelled T0 and T5, were prepared and all plasma samples were added at n=2. 300 μL of acetonitrile (Verapamil-HCl, 4 ng/mL) was added directly to the TO plate, followed by 50 μL of blank PBS mix well for 5 min and left to stand in a 4° C. refrigerator until the end of the incubation.
Experimental Operation: The dialysis device and the T5 plate were incubated together for 5 h in a microplate thermostatic shaker (37° C., using 300 rpm or minimum speed). At the end of the incubation, 300 μL of acetonitrile (Verapamil-HCl, 4 ng/mL) was added and 50 μL of PBS solution was added. At the end of the dialysis incubation, a new 96-well deep well plate was taken. Add 50 μL of plasma well sample to the corresponding position of the 96-well plate, 300 μL of acetonitrile and 50 μL of blank PBS; take 50 μL of buffer well sample to the corresponding position of the 96-well plate, then add 300 μL of acetonitrile and 50 μL of blank plasma. Add 300 μL of acetonitrile (Verapamil-HCl, 4 ng/mL) to the plasma-containing wells of the T5 plate, and then 50 μL of PBS solution was added. Shake for 5 min to fully precipitate the proteins and centrifuge at 20,000 g for 10 min at 4° C. Add 200 μL of supernatant to 200 μL of pure water, mix well and perform LC-MS/MS analysis.
• Plasma protein binding rate=[(Rpe−Rb)/Rpe]×100% • Recovery=[(Rpe+Rb)/R5 h]×100% • Stability=(R5/R0)×100%
• Rpe=ratio of plasma-side testing sample peak area to internal standard • Rb=ratio of buffer side testing sample peak area to internal standard • R5=ratio of incubator stability sample peak area to internal standard • R0=ratio of refrigerator stability sample peak area to internal standard

[7] = Metabolic stability in liver microsomes, dog; assay type: in vitro ADME
Protocol: as §7, with “Microsomes” for “Test Example 3: Evaluation of the Metabolic Stability of Liver Microsomes (Mouse and Human) In Vitro Microsomes”

[8] = Metabolic stability in liver microsomes, monkey; assay type: in vitro ADME
Protocol: as §7, with “Microsomes” for “Test Example 3: Evaluation of the Metabolic Stability of Liver Microsomes (Mouse and Human) In Vitro Microsomes”

CYP2C8 = CYP2C8 (Homo sapiens (Human), UniProt P10632); assay: Cytochrome P450 inhibition (fluorescence), CYP2C8; assay type: in vitro ADME
Sequence of CYP2C8 (P10632 whole entry): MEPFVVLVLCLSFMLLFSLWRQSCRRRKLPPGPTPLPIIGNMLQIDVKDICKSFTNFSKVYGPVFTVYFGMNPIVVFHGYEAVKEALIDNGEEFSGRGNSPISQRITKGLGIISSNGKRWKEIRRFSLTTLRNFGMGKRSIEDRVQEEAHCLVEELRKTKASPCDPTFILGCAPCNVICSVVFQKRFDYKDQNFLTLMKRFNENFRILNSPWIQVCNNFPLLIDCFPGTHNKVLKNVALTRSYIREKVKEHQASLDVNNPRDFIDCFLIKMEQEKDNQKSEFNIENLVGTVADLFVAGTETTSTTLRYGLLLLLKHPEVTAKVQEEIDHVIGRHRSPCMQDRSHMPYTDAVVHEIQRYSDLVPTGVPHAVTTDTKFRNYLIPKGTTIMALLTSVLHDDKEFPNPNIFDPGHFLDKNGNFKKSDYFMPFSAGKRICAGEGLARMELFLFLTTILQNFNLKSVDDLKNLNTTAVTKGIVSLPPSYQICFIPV
Protocol: as §8

CYP2D6 = CYP2D6 (Homo sapiens (Human), UniProt P10635); assay: Cytochrome P450 inhibition (fluorescence), CYP2D6; assay type: in vitro ADME
Sequence of CYP2D6 (P10635 whole entry): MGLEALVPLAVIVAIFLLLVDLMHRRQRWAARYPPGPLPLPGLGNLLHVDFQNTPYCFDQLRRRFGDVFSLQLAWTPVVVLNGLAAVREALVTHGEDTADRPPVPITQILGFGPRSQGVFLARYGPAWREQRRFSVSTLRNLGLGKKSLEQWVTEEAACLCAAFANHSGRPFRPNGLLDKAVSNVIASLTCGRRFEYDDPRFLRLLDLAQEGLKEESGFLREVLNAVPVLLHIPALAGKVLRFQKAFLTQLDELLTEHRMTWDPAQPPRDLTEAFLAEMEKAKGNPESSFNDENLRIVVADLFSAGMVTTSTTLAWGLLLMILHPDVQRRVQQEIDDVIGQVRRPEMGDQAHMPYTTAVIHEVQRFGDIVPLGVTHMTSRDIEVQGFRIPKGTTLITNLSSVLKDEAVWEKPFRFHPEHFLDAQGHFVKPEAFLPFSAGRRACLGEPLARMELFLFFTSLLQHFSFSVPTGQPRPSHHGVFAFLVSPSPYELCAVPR
Protocol: as §8

plasma protein [9] = assay: Plasma protein binding (equilibrium dialysis), rat; assay type: in vitro ADME; settings: 1 μM, 5 h dialysis
CYP2C19 = CYP2C19 (Homo sapiens (Human), UniProt P33261); assay: Cytochrome P450 inhibition (fluorescence), CYP2C19; assay type: in vitro ADME
Sequence of CYP2C19 (P33261 whole entry): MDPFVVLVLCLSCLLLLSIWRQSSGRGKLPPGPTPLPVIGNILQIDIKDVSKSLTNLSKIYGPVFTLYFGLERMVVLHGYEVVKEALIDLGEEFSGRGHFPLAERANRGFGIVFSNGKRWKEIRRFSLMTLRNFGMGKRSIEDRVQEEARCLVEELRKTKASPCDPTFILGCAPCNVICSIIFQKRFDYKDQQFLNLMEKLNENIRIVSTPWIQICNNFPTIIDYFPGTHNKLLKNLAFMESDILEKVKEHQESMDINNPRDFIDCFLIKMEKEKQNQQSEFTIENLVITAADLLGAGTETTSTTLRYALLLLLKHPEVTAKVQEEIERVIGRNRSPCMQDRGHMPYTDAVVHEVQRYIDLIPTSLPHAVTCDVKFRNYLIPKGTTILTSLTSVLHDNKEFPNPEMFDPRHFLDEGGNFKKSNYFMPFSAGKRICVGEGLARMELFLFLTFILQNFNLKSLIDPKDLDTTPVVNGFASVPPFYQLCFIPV
Protocol: as §8

Compound	IC50 (HK2 cells) [nM]	IC50 (HUVEC cells) [nM]	IC50 (BxPC3 cells) [nM]	hERG Inhibition (hERG potassium channel; test concentration 5 μM) [%]	hERG Inhibition (hERG potassium channel; test concentration 20 μM) [%]	IC50 (OVCAR-3 cells) [nM]	IC50 (HT-29 cells) [nM]	IC50 (Wee1 protein) [nM]	T1/2 liver microsomes Mouse [3] [h]	T1/2 liver microsomes Human [4] [h]	IC50 (CYP2C9; read-out: IC50 CYP2C9) [nM]	IC50 (CYP3A4; read-out: IC50 CYP3A4) [nM]	T1/2 liver microsomes Rat [5] [h]	IC50 (CYP1A2) [nM]	Plasma Protein binding (PPB) Mouse (plasma protein [6]) [%]	T1/2 liver microsomes Dog [7] [h]	T1/2 liver microsomes Monkey [8] [h]	IC50 (CYP2C8; read-out: IC50 CYP2C8) [nM]	IC50 (CYP2D6; read-out: IC50 CYP2D6) [nM]	Plasma Protein binding (PPB) Rat (plasma protein [9]) [%]	also measured
C=CCn1c(=O)c2cnc(Nc3ccc(N4CCN(C)CC4)cc3)nc2n1-c1ccc2c(n1)[C@@](O)(CC)CC2 [ZnC3, reference compound]	340	> 10000	100 to 1000	7.38 ± 1.59	18.05 ± 7.58	100 to 1000	100 to 1000	10 to 100	–	–	–	–	–	–	–	–	–	–	–	–	Survival of Rats ([1]; female rats): 1/7; Survival of Rats ([1]; male rats): 2/7; Saturated solubility pH 5.0 ([2]; pH 5): 0.35 mg/mL; Saturated solubility pH 6.5 ([2]; pH 6.5): 0.59 mg/mL; Saturated solubility pH 7.4 ([2]; pH 7.4): 0.68 mg/mL; Efflux Ration (Caco-2 cells; Caco2): 35.74; Papp A to B (Caco-2 cells; Caco2, 10 μM, 90 min): 0.42 10^−6 cm/s; Papp B to A (Caco-2 cells; Caco2, 10 μM, 90 min): 15.01 10^−6 cm/s
C=CCn1c(=O)c2cnc(Nc3ccc(N4CC5CC(C4)N5C)cc3)nc2n1-c1ccc2c(n1)[C@@](C)(O)C1(CC2)CC1 [Compound 7a]	670	> 10000	100 to 1000	–	–	100 to 1000	100 to 1000	5 to 10	1.209	1.057	> 10000	> 10000	0.357	> 10000	97.21	1.541	0.2625	> 10000	> 10000	94.82	–
C=CCn1c(=O)c2cnc(Nc3ccc(N4CCC5(CCN(C)CC5)CC4)cc3)nc2n1-c1ccc2c(n1)[C@](C)(O)C1(CC2)CC1 (racemic) [Compound 44]	–	–	100 to 1000	77.68 ± 4.16	91.56 ± 2.72	100 to 1000	100 to 1000	–	1.05	1.296	> 10000	> 10000	>2	> 10000	98.46	0.7135	0.5015	> 10000	> 10000	96.98	–
C=CCn1c(=O)c2cnc(Nc3ccc(N4CCN(C)CC4)cc3)nc2n1-c1ccc2c(n1)C(C)(O)C1(CC1)C2 (centres unmarked) [Compound 3]	–	–	1000 to 2000	–	–	1000 to 2000	100 to 1000	5 to 10	–	–	–	–	–	–	87.75	–	–	–	–	–	IC50 (CYP2C9): > 10000 nM; IC50 (CYP3A4): > 10000 nM; IC50 (CYP2C19): > 10000 nM; IC50 (CYP1A2; read-out: IC50 CYP1A2): > 10000 nM; IC50 (CYP2C8): > 10000 nM; IC50 (CYP2D6): > 10000 nM

From US20250304587A1, “WEE1 INHIBITOR, PREPARATION THEREFOR AND USE THEREOF” (JIANGSU TASLY DIYI PHARMACEUTICAL CO., LTD., priority 2022, published 2025)
